What was measured:
human CB1 receptors = human CB1 receptors (Homo sapiens, UniProt P21554); conditions: read-out: IC50 for binding to human CB1 receptors; as disclosed in WO 03/064359; cited from earlier work
ERK and Akt = ERK and Akt phosphorylation in neural progenitors (Western blot); assay type: cell-based, mouse; conditions: FIG. 3F
Method: Identical protein amounts of cleared cell extracts were subjected to SDS-PAGE, transferred to PVDF membranes, and following antibody incubations developed with enhanced chemiluminiscence detection kit [Aguado, T. et al., FASEB J. 19, 1704-6, 2005]. Loading controls were performed with an anti-α-tubulin antibody.

[1] = system: neural progenitor cell proliferation in the dentate gyrus; assay: In vivo hippocampal neural progenitor proliferation (BrdU-positive cells in dentate gyrus); set-up: species or system mouse; conditions: FIG. 4B; for hippocampal progenitor proliferation in vivo: wild-type adult mice, i.p. 5 consecutive days, HU-308 15 mg/kg, SR144528 1 mg/kg
Method: Adult CB2 receptor knock-out male mice (8-week old) and their respective wild-type littermates were injected i.p. with 50 mg/kg BrdU daily for 3 days, and perfused 1 day later. […] Control animals received the corresponding vehicle injection (100 μl PBS supplemented with 0.5 mg defatted bovine serum albumin and 4% dimethylsulfoxide). BrdU was administered daily during the pharmacological administration period. In the case of experiments on kainate-induced excitotoxicity, animals were injected with 15 mg/kg kainate or vehicle. E17.5 mouse embryos from mothers injected twice with 100 mg/kg BrdU (30-min interval between injections) were obtained 1 h after the first injection.
At the end of the study, animals were euthanized and their brains were fixed into 4% paraformaldehyde in PBS until further analysis.
Mice were perfused and immunostaining was performed in 30-μm brain coronal free-floating sections [Rueda, D. et al., J. Biol. Chem. 277, 4645-50, 2002]. Sections were incubated with polyclonal anti-CB2 antibody together with anti-nestin, anti-Neu, or anti-GFAP antibodies followed by secondary staining for rabbit and mouse IgGs with highly cross-adsorbed AlexaFluor 594 and AlexaFluor 488 secondary antibodies (Molecular Probes), respectively. Neural progenitor proliferation was determined with anti-BrdU antibody and secondary anti-rat IgG-AlexaFluor 594 in sections counterstained with TOTO-3 iodide. Preparations were examined using Leica software and SP2 AOBS microscope with 2 passes with a Kalman filter and a 1024×1024 collection box. BrdU^+ cells were counted in the subgranular zone and granule cell layer of the dentate gyrus. A 1-in-6 series of adult hippocampal mouse sections located between 1.3 and 2.1 mm posterior to bregma were employed. […] Frozen mouse embryo sections were incubated with anti-BrdU antibody together with Yoyo-1 iodide, and positive cells were determined in 7 sections per animal.
Results are expressed as number of BrdU positive cells per section in the dentate gyrus of the animals.

neural progenitors [2] = assay: BrdU cell proliferation assay in dissociated neurospheres; assay type: cell-based, mouse; conditions: for number of BrdU-incorporating cells: 30 nM, 16 hours, FIG. 3D; for effect on HU-308 induction of cell proliferation: PD98059 10 μM, LY294,002 5 μM, with HU-308 30 nM, FIG. 3E, confirmed in neurosphere generation assays
Method: These studies involve the use of bromodeoxyuridine (BrdU), a thymidine analog incorporated into DNA during the S phase of the cell cycle, which allows visualizing cell proliferation. Neural progenitor proliferation was determined by quantifying BrdU-positive cells 16 hours after incubation with 10 μg/ml BrdU, followed by immunostaining [Aguado, T. et al., FASEB J. 19, 1704-6, 2005].
Results are expressed as percentage of BrdU-positive cells over total cells.

substantia nigra = conditions: mice treated with the neurotoxin MPTP; cited from earlier work
basal ganglia = conditions: cited from earlier work
neural progenitors [3] = assay: Neurosphere generation and self-renewal of neural progenitors; assay type: cell-based, mouse; conditions: for neurosphere generation in CB2-deficient neural progenitors / primary neurosphere generation / neural progenitor self-renewal: 30 nM; for primary neurosphere generation: wild-type E17.5 progenitors, 7 days; for neural progenitor self-renewal: wild-type progenitors, 5 consecutive passages, FIG. 3C
Method: Multipotent self-renewing progenitors were obtained from the dissected cortices of mice at the indicated developmental stages and grown in chemically-defined medium constituted by Dulbecco's modified Eagle's and F12 media supplemented with N2 (Invitrogen), 0.6% glucose, non-essential amino acids, 50 mM Hepes, 2 μg/ml heparin, 20 ng/ml epidermal growth factor and 20 ng/ml basic fibroblast growth factor [Aguado, T. et al., J. Neurosci. 26, 1551-61, 2006]. Clonal neurospheres were cultured at 1000 cells/ml, dissociated with accutase (Sigma-Aldrich, Missouri, USA) and experiments were carried out with early (up to 10) passage neurospheres. Neurosphere generation experiments were performed in 96-well dishes with 100 μl of medium, and the number of neurospheres was quantified at predetermined time points by phase-contrast microscopy. Embryonic neural progenitors from wild-type and CB2-deficient mice were cultured (10,000 cells/ml) in the continuous presence of cannabinoids or controls for the indicated number of passages (one passage every 4 days).
Adult neural progenitors were obtained from hippocampi of 4-month-old adult mice and cultured as described above. Neural progenitor cell differentiation was performed as described.

[4] = system: embryonic hippocampal neural progenitor cells; conditions: Jiang et al. 2005; cited from earlier work
newborn neurons = conditions: chronic administration, Jiang et al. 2005; cited from earlier work
cannabinoid receptors = conditions: cited from earlier work

human CB1 receptors, sequence (P21554 whole entry): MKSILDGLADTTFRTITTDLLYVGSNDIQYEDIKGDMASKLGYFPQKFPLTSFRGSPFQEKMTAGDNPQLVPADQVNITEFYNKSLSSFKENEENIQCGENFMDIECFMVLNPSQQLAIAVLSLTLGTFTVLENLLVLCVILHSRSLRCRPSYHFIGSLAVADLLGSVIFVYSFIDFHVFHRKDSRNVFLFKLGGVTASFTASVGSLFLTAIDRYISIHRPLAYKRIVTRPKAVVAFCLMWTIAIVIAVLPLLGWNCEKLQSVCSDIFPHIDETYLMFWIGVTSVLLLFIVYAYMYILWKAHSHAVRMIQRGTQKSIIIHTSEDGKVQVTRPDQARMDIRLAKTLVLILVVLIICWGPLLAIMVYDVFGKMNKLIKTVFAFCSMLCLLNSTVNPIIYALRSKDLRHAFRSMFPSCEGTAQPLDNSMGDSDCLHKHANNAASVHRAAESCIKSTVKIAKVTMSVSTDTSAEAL

## CCCCCCC(C)(C)c1cc(OC)c(C2C=C(CO)C3CC2C3(C)C)c(OC)c1 (single isomer, unassigned; (+)) [HU-308, (+) {4-[4-(1,1-dimethylheptyl)-2,6-dimethoxyphenyl]-6,6-dimethyl-bicyclo[3.1.1]hept-2-en-2-yl}-methanol]
Human CB1 receptors
  IC50: 3.6 µM
ERK and Akt; 15 min (ERK) or 2 min (Akt)
  ERK and Akt phosphorylation: stimulated ERK and Akt
[1]; CB2-/- adult mice, 15 mg/kg i.p. 5 days
  hippocampal progenitor proliferation in CB2-deficient mice: lack of HU-308 agonistic effect
[1]
  hippocampal progenitor proliferation in vivo: increased progenitor proliferation
Neural progenitors [2]
  number of BrdU-incorporating cells: increased the number of BrdU-incorporating cells in a CB2-dependent manner
Substantia nigra
  extent of cell death in the substantia nigra: reduces the extent of cell death
Basal ganglia; non-lesioned side
  GABA level and dopamine transmission in the non-lesioned side: did not alter the parameters monitored
Basal ganglia; rats, intrastriatal injection of malonate
  extent of cell death in the basal ganglia: reduces the extent of cell death
Neural progenitors [3]; FIG. 3B
  neurosphere generation in CB2-deficient neural progenitors: neither HU-308 nor JWH-133 was able to enhance neurosphere generation
  primary neurosphere generation: increased
Neural progenitors [3]
  neural progenitor self-renewal: increased

## CCCCCCC(C)(C)c1cc(O)c2c(c1)OC(C)(C)[C@@H]1CC=C(CO)C[C@@H]21 [HU-210, 7-hydroxy-Δ^6-tetrahydrocannabinol-1,1-dimethyl-heptyl]
[4]
  proliferation and differentiation of embryonic hippocampal neural progenitor cells: promotes proliferation of said embryonic cells without affecting their differentiation
Newborn neurons
  measures of anxiety- and depression-like behavior: reduced measures of anxiety- and depression-like behavior
  number of newborn neurons: increased the number of newborn neurons

## CCCCCCC(C)(C)c1cc(O)c2c(c1)OC(C)(C)[C@@H]1CC=C(CO)C[C@@H]21 [HU-211, 7-hydroxy-Δ^6-tetrahydrocannabinol-1,1-dimethyl-heptyl]
Cannabinoid receptors
  affinity to the cannabinoid receptors: low affinity

## CCCC(C)(C)c1ccc2c(c1)OC(C)(C)[C@@H]1CC=C(C)C[C@@H]21 [JWH-133]
Neural progenitors [2]
  number of BrdU-incorporating cells: increased the number of BrdU-incorporating cells in a CB2-dependent manner
Neural progenitors [3]; FIG. 3B
  neurosphere generation in CB2-deficient neural progenitors: neither HU-308 nor JWH-133 was able to enhance neurosphere generation
  primary neurosphere generation: increased
Neural progenitors [3]; adult progenitors
  percentage of neurosphere number relative to vehicle incubations: 149±6%
Neural progenitors [3]; postnatal progenitors
  percentage of neurosphere number relative to vehicle incubations: 154±22%
Neural progenitors [3]
  neural progenitor self-renewal: increased

## O=c1cc(N2CCOCC2)oc2c(-c3ccccc3)cccc12 [LY294,002]
Neural progenitors [2]
  effect on HU-308 induction of cell proliferation: prevented by both inhibitors

## COc1cccc(-c2cc(=O)c3ccccc3o2)c1N [PD98059]
Neural progenitors [2]
  effect on HU-308 induction of cell proliferation: prevented by both inhibitors

## SR144528
ERK and Akt
  effect on HU-308 stimulation of ERK and Akt: this action was prevented
[1]
  hippocampal progenitor proliferation in vivo: exerted the opposite action
Neural progenitors [3]; 2 μM with HU-308 or JWH-133 30 nM, FIG. 3B, 3C
  effect on agonist-increased primary neurosphere generation and self-renewal: both actions were prevented
Neural progenitors [3]; data not shown
  effect on agonist-increased neurosphere generation in postnatal and adult progenitors: this action was prevented
